Results: patent publication US20240109896A1, “FGFR KINASE INHIBITOR AND USE THEREOF” (YA THERAPEUTICS INC, priority 2021, published 2024)
Where two headings read alike, the source gives them in different places.

Experiments:
FGFR2 = FGFR2 (Homo sapiens, UniProt P21802); test: In vitro activity inhibition test for kinase FGFR2; assay type: biochemical; conditions: kinase assay, 25° C.; read-out: Inhibition of separase IC50 (nM) FGFR2
FGFR1 = FGFR1 (Homo sapiens, UniProt P11362); test: In vitro activity inhibition test for kinase FGFR1
Sequence of FGFR1 (P11362 22-822): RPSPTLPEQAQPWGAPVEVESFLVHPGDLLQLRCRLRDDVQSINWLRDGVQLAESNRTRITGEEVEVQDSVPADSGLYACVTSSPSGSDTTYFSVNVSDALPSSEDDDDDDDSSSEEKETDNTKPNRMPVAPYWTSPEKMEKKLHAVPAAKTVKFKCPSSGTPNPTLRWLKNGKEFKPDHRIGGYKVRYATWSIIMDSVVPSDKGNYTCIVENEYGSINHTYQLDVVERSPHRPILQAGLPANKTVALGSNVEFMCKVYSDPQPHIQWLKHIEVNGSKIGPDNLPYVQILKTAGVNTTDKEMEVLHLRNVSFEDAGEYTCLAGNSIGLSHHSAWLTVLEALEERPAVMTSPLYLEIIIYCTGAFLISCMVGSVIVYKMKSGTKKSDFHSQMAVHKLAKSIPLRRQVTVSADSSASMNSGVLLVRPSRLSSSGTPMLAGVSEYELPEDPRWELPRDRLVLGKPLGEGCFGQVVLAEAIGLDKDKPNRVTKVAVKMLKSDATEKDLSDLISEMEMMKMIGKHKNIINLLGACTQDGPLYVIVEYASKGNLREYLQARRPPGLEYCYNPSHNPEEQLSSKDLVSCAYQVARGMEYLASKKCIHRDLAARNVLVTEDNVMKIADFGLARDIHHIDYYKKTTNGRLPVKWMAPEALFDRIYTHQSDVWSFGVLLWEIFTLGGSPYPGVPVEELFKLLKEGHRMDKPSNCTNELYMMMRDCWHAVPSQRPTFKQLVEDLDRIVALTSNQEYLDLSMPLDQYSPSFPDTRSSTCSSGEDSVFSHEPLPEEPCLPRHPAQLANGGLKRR
Description: (§1) In Vitro Activity Inhibition Test for Kinases FGFR1, FGFR2, FGFR3 and FGFR4
(§2) The activity of FGFR1, FGFR2, FGFR3 and FGFR4 protein kinases was determined by Caliper mobility shift assay. Perform a 4-fold gradient dilution from a working concentration of 0.2 mM in DMSO, diluting 10 concentrations. Add 2 μL of compound to 78 μL of 1× compound buffer. There were 10 points each for the negative control and the positive control. Shake the board on the rocker for 20 min. […] The final concentration of DMSO was 0.5%.

FGFR3 = FGFR3 (Homo sapiens, UniProt P22607); test: In vitro activity inhibition test for kinase FGFR3;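 also: FGFR3 kinase activity read by Caliper mobility shift assay, compounds run as 10-point 4-fold dilution series, final DMSO 0.5%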
Sequence of FGFR3 (P22607 23-806): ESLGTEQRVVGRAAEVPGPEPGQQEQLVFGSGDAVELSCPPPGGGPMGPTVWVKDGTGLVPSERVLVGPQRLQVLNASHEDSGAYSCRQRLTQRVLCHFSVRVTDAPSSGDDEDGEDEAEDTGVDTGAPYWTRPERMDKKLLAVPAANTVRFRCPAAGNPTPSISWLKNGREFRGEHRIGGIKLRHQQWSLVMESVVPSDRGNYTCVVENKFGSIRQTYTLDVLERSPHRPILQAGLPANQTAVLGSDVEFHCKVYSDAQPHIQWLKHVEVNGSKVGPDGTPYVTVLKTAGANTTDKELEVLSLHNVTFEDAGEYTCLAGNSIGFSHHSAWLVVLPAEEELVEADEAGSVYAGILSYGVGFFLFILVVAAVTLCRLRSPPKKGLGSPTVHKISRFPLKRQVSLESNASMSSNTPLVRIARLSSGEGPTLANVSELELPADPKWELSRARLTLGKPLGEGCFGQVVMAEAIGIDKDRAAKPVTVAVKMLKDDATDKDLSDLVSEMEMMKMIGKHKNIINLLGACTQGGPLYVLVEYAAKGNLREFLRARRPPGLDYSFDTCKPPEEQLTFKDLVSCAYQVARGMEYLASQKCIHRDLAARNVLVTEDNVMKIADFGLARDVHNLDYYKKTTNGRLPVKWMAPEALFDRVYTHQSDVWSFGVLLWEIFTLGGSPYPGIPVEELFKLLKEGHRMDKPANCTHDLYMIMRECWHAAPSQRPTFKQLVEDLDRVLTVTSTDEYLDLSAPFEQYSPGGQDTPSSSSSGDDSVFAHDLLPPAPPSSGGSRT
Description: as §1, §2

FGFR4 = FGFR4 (Homo sapiens, UniProt P22455); test: In vitro activity inhibition test for kinase FGFR4;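 also: caliper mobility shift assay of FGFR4 kinase activity, compounds tested as 10-point 4-fold dilution series with 0.5% DMSO final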
Sequence of FGFR4 (P22455 22-802): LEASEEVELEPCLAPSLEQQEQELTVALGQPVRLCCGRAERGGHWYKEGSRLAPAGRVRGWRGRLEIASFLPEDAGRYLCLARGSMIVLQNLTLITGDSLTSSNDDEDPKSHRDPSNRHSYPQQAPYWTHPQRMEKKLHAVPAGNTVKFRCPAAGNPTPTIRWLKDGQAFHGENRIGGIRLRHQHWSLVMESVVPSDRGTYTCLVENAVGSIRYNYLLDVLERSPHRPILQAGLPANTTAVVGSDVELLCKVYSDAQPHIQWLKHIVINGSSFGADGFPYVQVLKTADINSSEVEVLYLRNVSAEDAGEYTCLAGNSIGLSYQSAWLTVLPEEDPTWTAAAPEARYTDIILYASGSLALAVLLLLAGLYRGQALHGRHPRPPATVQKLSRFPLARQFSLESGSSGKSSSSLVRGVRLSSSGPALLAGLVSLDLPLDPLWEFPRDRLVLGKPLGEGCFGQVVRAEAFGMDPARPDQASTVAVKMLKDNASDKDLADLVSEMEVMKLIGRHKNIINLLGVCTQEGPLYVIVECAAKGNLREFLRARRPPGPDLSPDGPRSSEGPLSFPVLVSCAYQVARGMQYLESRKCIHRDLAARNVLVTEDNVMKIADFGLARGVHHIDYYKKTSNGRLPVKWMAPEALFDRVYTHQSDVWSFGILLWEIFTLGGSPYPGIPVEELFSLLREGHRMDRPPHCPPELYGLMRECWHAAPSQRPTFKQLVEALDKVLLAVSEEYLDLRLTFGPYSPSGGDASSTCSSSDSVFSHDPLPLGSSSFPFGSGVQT
Description: as §1, §2

Measured: IC50

Sequence of FGFR2 (P21802 22-821): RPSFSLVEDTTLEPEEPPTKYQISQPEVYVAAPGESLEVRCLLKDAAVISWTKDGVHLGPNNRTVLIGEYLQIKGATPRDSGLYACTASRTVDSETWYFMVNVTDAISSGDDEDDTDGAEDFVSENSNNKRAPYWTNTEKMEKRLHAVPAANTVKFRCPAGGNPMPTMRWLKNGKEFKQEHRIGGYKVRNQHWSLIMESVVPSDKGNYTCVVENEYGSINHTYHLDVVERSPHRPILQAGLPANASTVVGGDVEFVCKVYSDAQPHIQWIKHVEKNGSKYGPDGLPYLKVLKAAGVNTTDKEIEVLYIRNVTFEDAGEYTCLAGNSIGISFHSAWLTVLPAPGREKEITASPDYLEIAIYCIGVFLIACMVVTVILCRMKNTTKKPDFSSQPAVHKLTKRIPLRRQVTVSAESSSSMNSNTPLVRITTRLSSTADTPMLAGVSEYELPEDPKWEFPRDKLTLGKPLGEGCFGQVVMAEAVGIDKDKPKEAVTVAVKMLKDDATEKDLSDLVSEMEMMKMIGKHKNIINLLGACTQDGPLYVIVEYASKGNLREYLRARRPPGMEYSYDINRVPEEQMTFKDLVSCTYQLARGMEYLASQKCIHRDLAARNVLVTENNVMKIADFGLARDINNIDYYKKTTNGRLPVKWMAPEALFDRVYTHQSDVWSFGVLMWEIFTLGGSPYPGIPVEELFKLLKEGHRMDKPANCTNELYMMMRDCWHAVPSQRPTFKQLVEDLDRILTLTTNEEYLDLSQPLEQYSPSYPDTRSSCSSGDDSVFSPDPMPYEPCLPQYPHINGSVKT

CC#CC(=O)N1CC[C@H](n2cc(C#Cc3cc(OC)cc(OC)c3)c3c(N)n[nH]c(=O)c32)C1 [Compound 23, (S)-4-amino-1-(1-(but-2-ynoyl)pyrrolidin-3-yl)-3-((3,5-dimethoxyphenyl)ethynyl)-1,6-dihydro-7H-pyrrolo[2,3-d]pyridazin-7-one]
< 10 nM: FGFR2 | FGFR1 | FGFR3 | FGFR4

CC#CC(=O)N1CCC[C@H](n2nc(C#Cc3cc(OC)cc(OC)c3)c3c(N)n[nH]c(=O)c32)C1 [Compound 25, (S)-4-amino-1-(1-(but-2-ynoyl)piperidin-3-yl)-3-((3,5-dimethoxyphenyl)ethynyl)-1,6-dihydro-7H-pyrazolo[3,4-d]pyridazin-7-one]
< 10 nM: FGFR2 | FGFR1 | FGFR3 | FGFR4

CC#CC(=O)N1CC[C@H](n2nc(C#Cc3cc(OC)cc(OC)c3)c3c(N)n[nH]c(=O)c32)C1 [Compound 27, (S)-4-amino-1-(1-(but-2-ynoyl)pyrrolidin-3-yl)-3-((3,5-dimethoxyphenyl)ethynyl)-1,6-dihydro-7H-pyrazolo[3,4-d]pyridazin-7-one]
< 10 nM: FGFR2 | FGFR1 | FGFR3 | FGFR4

CC#CC(=O)N1CC[C@H](n2cc(-c3ccc4ccccc4c3)c3c(N)n[nH]c(=O)c32)C1 [Compound 39, (S)-4-amino-1-(1-(but-2-ynoyl)pyrrolidin-3-yl)-3-(naphthalen-2-yl)-1,6-dihydro-7H-pyrrolo[2,3-d]pyridazin-7-one]
< 10 nM: FGFR2 | FGFR1 | FGFR3 | FGFR4

C=CC(=O)N1CC[C@H](n2cc(-c3cc4ccccc4n3C)c3c(N)n[nH]c(=O)c32)C1 [Compound 40, (S)-1-(1-acryloylpyrrolidin-3-yl)-4-amino-3-(1-methyl-1H-indol-2-yl)-1,6-dihydro-7H-pyrrolo[2,3-d]pyridazin-7-one]
< 10 nM: FGFR2 | FGFR1 | FGFR3 | FGFR4

C=CC(=O)N1CC[C@H](n2cc(-c3cc4ccccc4o3)c3c(N)n[nH]c(=O)c32)C1 [Compound 41, (S)-1-(1-acryloylpyrrolidin-3-yl)-4-amino-3-(benzofuran-2-yl)-1,6-dihydro-7H-pyrrolo[2,3-d]pyridazin-7-one]
< 10 nM: FGFR2 | FGFR1 | FGFR3 | FGFR4

C=CC(=O)N1CC[C@H](n2cc(-c3cn(C)c4ccccc34)c3c(N)n[nH]c(=O)c32)C1 [Compound 42, (S)-1-(1-acryloylpyrrolidin-3-yl)-4-amino-3-(1-methyl-1H-indol-3-yl)-1,6-dihydro-7H-pyrrolo[2,3-d]pyridazin-7-one]
< 10 nM: FGFR2 | FGFR1 | FGFR3 | FGFR4

C=CC(=O)N1CC[C@H](n2cc(-c3ccc4ccccc4c3)c3c(N)n[nH]c(=O)c32)C1 [Compound 43, (S)-1-(1-acryloylpyrrolidin-3-yl)-4-amino-3-(naphthalen-2-yl)-1,6-dihydro-7H-pyrrolo[2,3-d]pyridazin-7-one]
< 10 nM: FGFR2 | FGFR1 | FGFR3 | FGFR4

(S)-4-amino-1-(1-(but-2-ynoyl)pyrrolidin-3-yl)-3-((2,6-difluoro-3,5-dimethoxyphenyl)ethynyl)-1,6-dihydro-7H-pyrazolo[3,4-d]pyridazin-7-one [Compound 29]
< 10 nM: FGFR2 | FGFR1; read-out: Inhibition of FGFR1 IC50 (nM) FGFR1, kinase assay, 25° C. | FGFR3; read-out: Inhibition IC50 (nM) FGFR3, kinase assay, 25° C. | FGFR4; read-out: Inhibition of kinase IC50 (nM) FGFR4, kinase assay, 25° C.
